Literature values in patent US20020013320A1, “Use of growth hormone secretagogues to treat systemic lupus erythematosus and inflammatory bowel disease” (priority 2000, published 2002).
Where a SMILES comes first, the peptide text is derived from it. [ ]: non-standard residue; d: D form. d2Nal = N[C@H](Cc1ccc2ccccc2c1)C(=O)O; Aib = CC(C)(N)C(=O)O

How the values were obtained:
[1] = adult female rats
[2] = oral treatment, obese young males
[3] = canines during remobilization

Compound	bone mass [1]	markers of bone formation and bone resorption [2]	levels of serum insulin-like growth factor-1 [3]	size and strength of the quadriceps muscle [3]
GHRP-6	have the capacity to increase bone mass			
CC(C)(N)C(=O)N[C@H](COCc1ccccc1)C(=O)N1CCC2(CC1)CN(S(C)(=O)=O)c1ccccc12 [MK-0677]		increases	elevated	increased
CC(C)(N)C(=O)N[C@@H](Cc1c[nH]cn1)C(=O)N[C@H](Cc1ccc2ccccc2c1)C(=O)N[C@H](Cc1ccccc1)C(=O)N[C@@H](CCCCN)C(N)=O [Ipamorelin] (H-[Aib]H[d2Nal][dF]K-NH2)	have the capacity to increase bone mass			
